Data reported in PMC5619819, “A highly-sensitive high throughput assay for dynamin's basal GTPase activity” (PLoS ONE, 2017).
Several values for one entry are separate records, joined by “and”; a condition that tells them apart may be missing. Identical values can stand only once. Entries after “also recorded” stand apart in the source; their conditions may differ.

Tests used:
dynamin = conditions: low salt, 20 nM dynamin; read-out: IC50, stimulated GTPase activity, sonicated PS liposomes; cited from earlier work
[1] = system: triple dynamin-1, 2, and 3 knockout cells; parameters: method as in PMID 24046449; conditions: cited from earlier work
Dynamin-1 (Dyn1) [2] = target: T1, Dynamin-1 (Dyn1) (Homo sapiens, UniProt Q05193); test: Transcreener GDP fluorescence polarization assay, basal GTPase activity; assay type: biochemical; conditions: for inhibition of basal GTPase activity (result in words): high salt (150 mM KCl), inhibitor 1 nM to 100 μM
T1 construct: made in house; host or cells: Sf9 (Spodoptera frugiperda) insect cells
T1 sequence (Q05193 1-864): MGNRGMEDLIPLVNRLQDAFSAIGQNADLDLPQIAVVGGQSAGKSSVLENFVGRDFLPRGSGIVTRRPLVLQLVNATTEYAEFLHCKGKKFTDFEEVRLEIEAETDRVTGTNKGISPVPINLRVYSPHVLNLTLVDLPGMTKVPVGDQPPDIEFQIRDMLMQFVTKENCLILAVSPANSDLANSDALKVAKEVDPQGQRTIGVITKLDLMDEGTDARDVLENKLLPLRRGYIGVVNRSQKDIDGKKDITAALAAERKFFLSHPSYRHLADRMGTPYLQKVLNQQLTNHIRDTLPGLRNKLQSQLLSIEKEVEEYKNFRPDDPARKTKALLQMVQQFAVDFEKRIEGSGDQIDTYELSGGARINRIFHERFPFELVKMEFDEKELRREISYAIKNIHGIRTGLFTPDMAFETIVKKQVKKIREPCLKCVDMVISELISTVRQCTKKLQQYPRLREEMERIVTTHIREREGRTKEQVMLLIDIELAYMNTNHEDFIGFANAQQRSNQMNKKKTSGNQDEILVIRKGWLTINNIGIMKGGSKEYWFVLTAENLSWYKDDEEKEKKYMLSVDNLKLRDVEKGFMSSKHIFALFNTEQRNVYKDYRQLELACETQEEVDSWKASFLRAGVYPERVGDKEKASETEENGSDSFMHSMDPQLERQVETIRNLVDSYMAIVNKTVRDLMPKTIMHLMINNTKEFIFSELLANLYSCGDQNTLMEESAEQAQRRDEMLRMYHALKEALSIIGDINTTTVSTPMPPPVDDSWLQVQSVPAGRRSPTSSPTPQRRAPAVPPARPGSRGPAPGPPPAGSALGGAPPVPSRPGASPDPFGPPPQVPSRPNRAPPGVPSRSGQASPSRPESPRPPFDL
Experimental: Dynamin-1 (Dyn1) was expressed in Sf9 (Spodoptera frugiperda, GIBCO-BRL, Gaithersburg, MD) insect cells and purified by affinity chromatography, as previously described. Nucleotide-free protein aliquots were stored in assay buffer containing 20 mM HEPES, 150 mM KCl, 1 mM EDTA, 1 mM EGTA and 1 mM DTT at pH 7.4. The aliquots were flash frozen in liquid nitrogen and stored in -80°C in 5% v/v glycerol. Prior to running assays, frozen aliquots of Dyn1 were thawed and centrifuged at 100,000 g for 15 minutes to remove any aggregates. Dyn1 concentration was determined by measuring its absorbance at 280 nm with a UV/Vis spectrophotometer (Beckman Coulter Inc.) using a molar absorptivity coefficient of 73,800 M^-1 cm^-1.
The Transcreener® GDP FP (BellBrook Labs) assay is an immune-competition assay based on a mouse monoclonal antibody that selectively binds Alexa633-conjugated GDP over GTP. The preformed Alexa633-GDP antibody complex is added at the end of the reaction, and the GDP generated displaces bound Alexa633 fluorescent tracer, resulting in a decrease in its far-red fluorescence polarization (FP). The assay detects GDP production with high sensitivity at low substrate concentrations and has been used to develop an HTS compatible assay for the enzymatic activity of ARFGAP [20]. Stocks of 5 mM GTP, 10x Stop & Detect Buffer B, 400 nM GDP Alexa633 Tracer, and 3100 μg/mL GDP antibody were purchased from BellBrook Labs (Madison, WI). Assays were performed in Corning 384-well plates at room temperature.
All assays were conducted in the endpoint format, which measures total GDP production after 60 minutes of incubation at room temperature. […] The plate was then read for fluorescence polarization in millipolarization units (mP) using an EnVision multi-modal microplate reader (PerkinElmer, Inc.). […]
For the confirmation screen and dose response curves, the data were analyzed by normalizing the sample GDP released to the control GDP released using the following equation: normalizedGTPaseactivity=sampleGDPreleased/controlGDPreleased×100 (4)

Dynamin-1 (Dyn1) [3] = target: T1, Dynamin-1 (Dyn1); test: Lipid nanotube (NT)-stimulated GTPase activity, malachite green assay; assay type: biochemical; conditions: 100 nM Dyn1, 300 μM lipid nanotubes, 25 μM GTP, 37°C; read-out: IC50, inhibition of NT-stimulated GTPase activity of Dyn1
Experimental: The lipid nanotube (NT)-stimulated malachite green assays were performed in 96-well plates at 37°C. The final reaction consisted of 100 nM Dyn1, 25 μM GTP, and 300 μM lipid nanotubes. The assay and reagent preparations were performed according to our published protocol. All general chemicals were purchased from Sigma-Aldrich (St. Louis, MO). Compounds tested in the malachite green assay were purchased from Chembridge and ChemDiv (both located in San Diego, CA).
Compound 24 was compared with the two commercially available dynamin inhibitors, Dynasore and Dyngo-4a, in a dose-response assay measuring inhibition of basal GTPase activity under high salt (150 mM KCl) conditions. The concentration of inhibitors ranged from 1 nM to 100 μM. […] Therefore, to more closely parallel previous studies we tested both commercial inhibitors in comparison to compound 24 for their effects on dynamin’s stimulated GTPase activity. Assays were performed in the presence of PI(4,5)P2-containing lipid nanotubes (NT), whose diameter (~ 20 nm) resembles the neck of an invaginated coated pit, using the malachite green assay.

SMILES: O=C(N/N=C/c1ccc(O)c(O)c1)c1cc2ccccc2cc1O [Dynasore]
- IC50 (dynamin): 0.4 µM
- inhibition of endocytosis (result in words) [1]: continue to inhibit endocytosis
- inhibition of basal GTPase activity (result in words) (Dynamin-1 (Dyn1) [2]): do not appear to inhibit basal GTPase activity even at high concentrations; also recorded: neither was able to inhibit basal GTPase activity
- IC50 (Dynamin-1 (Dyn1) [3]): 83.5 µM

SMILES: O=C(N/N=C/c1cc(O)c(O)cc1O)c1cc2ccccc2cc1O [Dyngo-4a]
- IC50 (dynamin): 12 µM
- inhibition of endocytosis (result in words) [1]: continue to inhibit endocytosis
- inhibition of basal GTPase activity (result in words) (Dynamin-1 (Dyn1) [2]): do not appear to inhibit basal GTPase activity even at high concentrations; also recorded: neither was able to inhibit basal GTPase activity
- IC50 (Dynamin-1 (Dyn1) [3]): 45.4 µM

SMILES: CN(C)c1ccc(/C=C/C=C2/SC(=S)NC2=O)cc1 [compound 24]
- IC50 (Dynamin-1 (Dyn1) [2]; 50 nM Dyn1, 10 μM GTP, 60 min, room temperature, 11-point dose response 1 nM to 100 μM, read-out: IC50, inhibition of basal GTPase activity of Dyn1): 0.58 µM and ~0.6 µM
- IC50 (Dynamin-1 (Dyn1) [3]): 6.4 µM and ~6 µM
